Measurements reported in publication PMC4835124 (Drug Design, Development and Therapy, 2016).
Read-outs that look alike come from different tables or passages of the source.

Experiments:
Food effect study = assay type: in vivo, human; details: for CL/F: Part 2, FDC_EVO5/MET1000 single oral dose, n=27, mean ± SD
[1] = single administration in healthy volunteers; cited from earlier work
[2] = multiple dosing, 5–20 mg dose range, healthy volunteers; cited from earlier work
[3] = Comparative pharmacokinetic study; details: for CL/F: fasting, n=35, mean ± SD; for Tmax: po
[4] = Part 1, EVO+MET (individual tablets) single oral dose
[5] = Part 1, FDC_EVO5/MET1000 single oral dose, plasma

Row | CL/F (Food effect study; Fasted) [L/h] | CL/F (Food effect study; Fed) [L/h] | effect of food on pharmacokinetics (Food effect study; single oral dose of FDC_EVO5/MET1000, fed vs fasted) | CL/F [3, 4] [L/h] | CL/F [3, 5] [L/h] | Tmax ([3]; male, human, in vivo) [h] | half-life ([3]; male, human, in vivo, terminal half-life, present study) [h] | intrasubject variability in CL/F ([3]; present study) | increase of AUClast under the fed condition compared to the fasted condition (Food effect study; FDC_EVO5/MET1000 single oral dose) | Structure (SMILES) | effect of food on pharmacokinetics [1] | half-life [1] [h] | dose linearity of pharmacokinetics [2]
1 | 25.05 ± 6.68 | 23.76 ± 5.07 | did not significantly affect | 28.56 ± 8.64 | 28.81 ± 9.19 | 5 | > 24 | around 10.0% |  | CC(C)(C)OC[C@@H]1C(=O)NCCN1C(=O)C[C@H](N)Cc1cc(F)c(F)cc1F [Evogliptin, evogliptin] | not affected by food | ≥ 30 | linear pharmacokinetics
2 | 112.95 ± 28.61 | 78.76 ± 20.56 |  | 126.15 ± 35.21 | 126.82 ± 38.28 | 4 |  |  | 36%–60% | CN(C)C(=N)N=C(N)N [Metformin, metformin] |  |  | 
